Assay results as given in US8415469B2, “Compounds and methods for kinase modulation, and indications therefor” (Plexxikon Inc., priority 2005, dated 2013).
Read-outs that look alike come from different tables or passages of the source.

Key:
Assay type in all cases: biochemical
Fms = molecular target: T1, Fms (Homo sapiens, UniProt P07333); assay: AlphaScreen kinase assay, Fms; conditions: read-out: IC50, activity toward kinase Fms
T1 construct: purchased Upstate Biotechnology

Pyk2 = molecular target: T2, Pyk2 (Homo sapiens, UniProt Q14289); assay: AlphaScreen kinase assay, Pyk2; conditions: read-out: IC50, activity toward kinase Pyk2
T2 construct: purchased Upstate Biotechnology

B-Raf V600E = molecular target: T3, B-Raf V600E (Homo sapiens, UniProt P15056, V600E); assay: AlphaScreen kinase assay, B-Raf V600E
T3 construct: P4254. pFastBacBD-CDC37 BRAF D437-K722-X, V600E; His6 with pFastBac HT leader (TEV site) (N); made in house; host or cells: Sf9 (baculovirus; chaperone CDC37 co-expressed)

Kit = molecular target: T4, Kit (Homo sapiens, UniProt P10721); assay: AlphaScreen kinase assay, Kit; conditions: read-out: IC50, activity toward kinase Kit
T4 construct: P1332.N6 BI PTP KIT M552-K948-X COD; His6 (N); made in house; host or cells: E. coli (PTP1B co-expressed)

FGFR1 = molecular target: T5, FGFR1 (Homo sapiens, UniProt P11362, C488A/C584S); assay: AlphaScreen kinase assay, FGFR1; conditions: read-out: IC50, activity toward kinase FGFR
T5 construct: P1351.pET N6 BI-PTP FGFR A458-E765-X C488A, C584S; made in house; host or cells: E. coli (PTP1B co-expressed)

Flt1 = molecular target: T6, Flt1 (Homo sapiens, UniProt P17948); assay: AlphaScreen kinase assay, Flt1; conditions: read-out: IC50, activity toward kinase Flt1
T6 construct: P1826.pETN6 BI-PTP FLT1 M799-D1165-X WT; His6 (N); made in house; host or cells: E. coli (PTP1B co-expressed)
T6 sequence (P17948 with tags, fused parts or gaps): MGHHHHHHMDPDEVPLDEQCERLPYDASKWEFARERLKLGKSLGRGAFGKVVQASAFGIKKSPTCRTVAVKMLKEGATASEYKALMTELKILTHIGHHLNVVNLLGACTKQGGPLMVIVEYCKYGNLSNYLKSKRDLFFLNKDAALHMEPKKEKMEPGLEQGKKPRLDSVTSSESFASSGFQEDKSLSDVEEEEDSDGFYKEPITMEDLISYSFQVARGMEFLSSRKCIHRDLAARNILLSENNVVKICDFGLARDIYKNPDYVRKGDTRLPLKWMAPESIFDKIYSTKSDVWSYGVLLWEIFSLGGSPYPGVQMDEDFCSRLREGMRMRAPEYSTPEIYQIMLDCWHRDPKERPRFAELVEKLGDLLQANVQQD

Fak = molecular target: T7, Fak (Homo sapiens, UniProt Q05397); assay: AlphaScreen kinase assay, Fak; conditions: read-out: IC50, activity toward kinase Fak
T7 construct: P1358.pFastBacHtb FAK S411-Q686-X; His6 with pFastBacHTb leader (TEV site) (N); made in house; host or cells: Sf9 (baculovirus)

Jnk2 = molecular target: T8, Jnk2 (Homo sapiens, UniProt P45984); assay: AlphaScreen kinase assay, Jnk2; conditions: read-out: IC50, activity toward kinase Jnk2
T8 construct: purchased Roche Protein Expression Group (Indianapolis, IN)
How it was run: (§1)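 Kinase activity was measured as phosphorylation of a biotinylated peptide, detected with streptavidin donor and phospho-antibody acceptor beads. Compounds, from 20 mM DMSO stocks, were tested at eight concentrations in 1:3 serial dilution.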

Src = molecular target: T9, Src (Homo sapiens, UniProt P12931); assay: AlphaScreen kinase assay, Src; conditions: read-out: IC50, activity toward kinase Src
T9 construct: P1144. pET-N6 BI-PTP SRC V86-L536-X; made in house

Jnk1 = molecular target: T10, Jnk1 (Homo sapiens, UniProt P45983); assay: AlphaScreen kinase assay, Jnk1; conditions: read-out: IC50, activity toward kinase Jnk1
T10 construct: purchased Upstate Biotechnology
Method: AlphaScreen assays were done using compounds dissolved in DMSO to a concentration of 20 mM. The compounds were diluted accordingly to the desired final concentrations in each sample well, using 1:3 serial dilution for a total of 8 concentration points. Plates were prepared such that each kinase reaction is 20 μl in 1× kinase buffer, 5% DMSO and 10 μM ATP. After incubation of the kinase reaction for 1 hour at room temperature, 5 μl of donor beads in stop buffer (50 mM EDTA in 1× kinase buffer) was added, the sample was mixed and incubated for 20 minutes at room temperature before adding 5 μl of acceptor beads in stop buffer. The samples were incubated for 60 minutes at room temperature and the signal per well was read on AlphaQuest reader.

Met = molecular target: T11, Met (Homo sapiens, UniProt P08581); assay: AlphaScreen kinase assay, Met; conditions: read-out: IC50, activity toward kinase Met
T11 construct: P1818.pETN6 BI-PTP MET G1056-G1364-X WT; His6 (N); made in house; host or cells: E. coli (PTP1B co-expressed)
Source text: (§2) AlphaScreen assay was used to screen additional kinases. The assay is similarly dependent on the phosphorylation of a peptide substrate. In this assay, an antibody that recognizes phosphorylated substrate is bound to an acceptor bead. The peptide substrate is attached to biotin, which binds to a donor head that contains streptavidin. Thus phosphorylated substrate is bound by antibody and streptavidin, bringing the donor and acceptor heads into close proximity when kinase is not inhibited. The donor produces singlet oxygen which results in emission from the acceptor when they are in close proximity. Conversely, when kinase is inhibited, the donor and acceptor beads are not associated and the emission from the acceptor is reduced.
(§3) AlphaScreen assays were done using compounds dissolved in DMSO to a concentration of 20 mM. The compounds were diluted accordingly to the desired final concentrations in each sample well, using 1:3 serial dilution for a total of 8 concentration points.

c-Raf-1 = molecular target: T12, c-Raf-1 (Homo sapiens, UniProt P04049); assay: AlphaScreen kinase assay, c-Raf-1; conditions: read-out: IC50, activity toward kinase c-Raf-1
T12 construct: purchased Upstate Biotechnology

B-Raf = molecular target: T13, B-Raf (Homo sapiens, UniProt P15056); assay: AlphaScreen kinase assay, B-Raf
T13 construct: purchased Upstate Biotechnology

MAP4K4 = MAP4K4 (Homo sapiens, UniProt O95819); assay: AlphaScreen kinase assay, MAP4K4; conditions: read-out: IC50, activity toward kinase MAP4K4
Zap70 = molecular target: T14, Zap70 (Homo sapiens, UniProt P43403); assay: AlphaScreen kinase assay, Zap70; conditions: read-out: IC50, activity toward kinase Zap70
T14 construct: P1868.pFastBac1 ZAP70 D327-G606 HIS, WT; His7 (HHHHHHH) (C); made in house
T14 sequence (P43403 with tags, fused parts or gaps): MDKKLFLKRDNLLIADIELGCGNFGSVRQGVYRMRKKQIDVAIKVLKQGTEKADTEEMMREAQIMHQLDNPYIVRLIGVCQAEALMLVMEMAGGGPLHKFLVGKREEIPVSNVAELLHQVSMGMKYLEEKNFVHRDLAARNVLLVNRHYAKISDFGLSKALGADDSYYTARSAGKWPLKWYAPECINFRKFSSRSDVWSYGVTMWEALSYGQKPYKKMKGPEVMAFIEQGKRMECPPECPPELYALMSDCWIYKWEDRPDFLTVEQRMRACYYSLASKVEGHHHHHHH
How it was run: as §1

Stk6 = molecular target: T15, Stk6 (Homo sapiens, UniProt O14965); assay: Z'-Lyte FRET kinase assay (Invitrogen), Stk6; conditions: read-out: IC50, activity toward kinase Stk6
T15 construct: purchased Invitrogen (Carlsbad, Calif.), screening service
T15 sequence (O14965 1-403): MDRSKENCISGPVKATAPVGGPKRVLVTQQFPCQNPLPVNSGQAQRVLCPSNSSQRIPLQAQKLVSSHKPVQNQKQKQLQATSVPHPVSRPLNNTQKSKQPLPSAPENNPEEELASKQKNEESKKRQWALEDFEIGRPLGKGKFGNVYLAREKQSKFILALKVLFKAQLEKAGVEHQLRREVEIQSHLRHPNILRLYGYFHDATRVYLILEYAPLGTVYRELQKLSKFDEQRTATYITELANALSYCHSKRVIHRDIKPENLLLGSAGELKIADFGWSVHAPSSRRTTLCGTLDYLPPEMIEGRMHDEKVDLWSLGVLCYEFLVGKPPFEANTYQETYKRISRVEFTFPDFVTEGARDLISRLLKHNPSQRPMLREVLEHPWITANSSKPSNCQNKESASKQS

Abl = molecular target: T16, Abl (Homo sapiens, UniProt P00519); assay: AlphaScreen kinase assay, Abl; conditions: read-out: activity toward kinase Abl, IC50
T16 construct: P1121. pET-SPEC BI-PTP Abl G227-V515-X; His6 (N); made in house; host or cells: E. coli (PTP1B co-expressed)
T16 sequence (P00519 with tags, fused parts or gaps): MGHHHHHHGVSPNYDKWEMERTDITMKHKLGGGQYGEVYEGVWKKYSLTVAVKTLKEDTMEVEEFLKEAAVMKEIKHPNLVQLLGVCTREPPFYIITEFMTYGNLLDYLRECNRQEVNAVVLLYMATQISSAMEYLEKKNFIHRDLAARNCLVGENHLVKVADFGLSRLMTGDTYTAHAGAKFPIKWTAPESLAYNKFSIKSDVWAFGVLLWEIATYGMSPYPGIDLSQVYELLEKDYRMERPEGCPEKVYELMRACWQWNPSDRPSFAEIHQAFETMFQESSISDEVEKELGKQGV
Source text: as §2, §3

Kdr = molecular target: T17, Kdr (Homo sapiens, UniProt P35968); assay: Z'-Lyte FRET kinase assay (Invitrogen), Kdr; conditions: read-out: IC50, activity toward kinase Kdr
T17 construct: purchased Invitrogen (assay run by Invitrogen)

Ret = molecular target: T18, Ret (Homo sapiens, UniProt P07949); assay: AlphaScreen kinase assay, Ret; conditions: read-out: IC50, activity toward kinase Ret
T18 construct: P1378.pET-SF BI-PTP RET H661-R1012 HIS; made in house
T18 sequence (P07949 with tags, fused parts or gaps): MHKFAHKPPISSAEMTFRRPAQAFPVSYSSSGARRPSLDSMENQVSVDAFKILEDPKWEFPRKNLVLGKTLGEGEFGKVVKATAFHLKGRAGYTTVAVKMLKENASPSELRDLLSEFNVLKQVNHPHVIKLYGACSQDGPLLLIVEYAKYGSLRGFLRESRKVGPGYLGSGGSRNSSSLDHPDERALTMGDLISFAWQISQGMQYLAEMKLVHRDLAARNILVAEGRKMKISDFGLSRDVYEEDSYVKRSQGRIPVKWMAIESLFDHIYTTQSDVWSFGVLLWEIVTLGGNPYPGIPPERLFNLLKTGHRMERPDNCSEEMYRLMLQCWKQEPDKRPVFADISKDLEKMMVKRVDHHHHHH

Jnk3 = molecular target: T19, Jnk3 (Homo sapiens, UniProt P53779); assay: AlphaScreen kinase assay, Jnk3; conditions: read-out: IC50, activity toward kinase Jnk3
T19 construct: purchased Upstate Biotechnology

Akt3 = Akt3 (Homo sapiens, UniProt Q9Y243); assay: AlphaScreen kinase assay, Akt3; conditions: read-out: IC50, activity toward kinase Akt3
Source text: as §2, §3

[1] = read-out: IC50, activity toward kinase B-Raf V600E
[2] = read-out: IC50, activity toward kinase B-Raf

Measured: IC50

T4 sequence (P10721 with tags, fused parts or gaps): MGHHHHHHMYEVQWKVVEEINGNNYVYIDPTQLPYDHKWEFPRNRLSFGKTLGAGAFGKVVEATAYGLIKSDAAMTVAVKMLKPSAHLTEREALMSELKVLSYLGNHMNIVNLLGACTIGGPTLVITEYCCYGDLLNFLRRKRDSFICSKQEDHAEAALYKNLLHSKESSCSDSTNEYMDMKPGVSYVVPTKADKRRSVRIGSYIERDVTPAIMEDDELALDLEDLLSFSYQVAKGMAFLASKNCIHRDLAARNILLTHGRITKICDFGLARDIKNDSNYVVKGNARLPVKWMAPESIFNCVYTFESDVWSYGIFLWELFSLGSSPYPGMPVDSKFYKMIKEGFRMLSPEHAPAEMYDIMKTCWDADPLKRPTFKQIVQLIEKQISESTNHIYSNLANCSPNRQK
Sequence of MAP4K4 (O95819 whole entry): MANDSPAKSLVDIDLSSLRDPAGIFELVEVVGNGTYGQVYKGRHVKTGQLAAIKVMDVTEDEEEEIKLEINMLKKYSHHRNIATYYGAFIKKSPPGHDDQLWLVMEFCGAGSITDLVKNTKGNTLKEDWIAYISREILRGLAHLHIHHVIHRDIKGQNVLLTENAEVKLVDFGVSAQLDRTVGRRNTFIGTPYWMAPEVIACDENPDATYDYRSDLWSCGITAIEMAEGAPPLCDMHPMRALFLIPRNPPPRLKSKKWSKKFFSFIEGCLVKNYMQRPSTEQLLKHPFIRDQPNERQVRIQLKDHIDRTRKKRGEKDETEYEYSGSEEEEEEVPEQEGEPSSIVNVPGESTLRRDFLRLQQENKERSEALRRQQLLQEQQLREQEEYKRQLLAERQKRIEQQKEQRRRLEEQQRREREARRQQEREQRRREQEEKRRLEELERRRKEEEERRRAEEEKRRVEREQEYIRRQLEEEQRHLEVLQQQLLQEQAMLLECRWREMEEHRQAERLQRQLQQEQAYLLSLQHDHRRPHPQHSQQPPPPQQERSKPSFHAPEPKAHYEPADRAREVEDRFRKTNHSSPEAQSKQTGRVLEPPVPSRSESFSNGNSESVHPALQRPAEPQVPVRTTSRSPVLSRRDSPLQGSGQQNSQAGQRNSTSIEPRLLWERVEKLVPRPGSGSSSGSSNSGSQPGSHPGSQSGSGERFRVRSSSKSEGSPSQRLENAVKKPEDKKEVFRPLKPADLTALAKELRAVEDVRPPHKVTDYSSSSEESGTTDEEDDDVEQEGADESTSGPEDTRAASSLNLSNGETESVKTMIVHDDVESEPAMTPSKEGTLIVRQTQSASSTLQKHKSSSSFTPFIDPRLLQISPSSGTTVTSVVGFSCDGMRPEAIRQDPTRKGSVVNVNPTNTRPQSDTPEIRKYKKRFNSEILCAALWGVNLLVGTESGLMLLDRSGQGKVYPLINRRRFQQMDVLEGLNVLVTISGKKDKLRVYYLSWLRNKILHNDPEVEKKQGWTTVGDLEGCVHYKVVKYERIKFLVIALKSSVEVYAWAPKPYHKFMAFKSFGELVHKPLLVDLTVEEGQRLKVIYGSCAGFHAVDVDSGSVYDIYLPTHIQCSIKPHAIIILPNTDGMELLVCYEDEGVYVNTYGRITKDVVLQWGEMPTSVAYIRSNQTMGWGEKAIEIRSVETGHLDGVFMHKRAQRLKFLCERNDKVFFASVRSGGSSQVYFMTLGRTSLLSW
T5 sequence (P11362 458-765 C488A/C584S): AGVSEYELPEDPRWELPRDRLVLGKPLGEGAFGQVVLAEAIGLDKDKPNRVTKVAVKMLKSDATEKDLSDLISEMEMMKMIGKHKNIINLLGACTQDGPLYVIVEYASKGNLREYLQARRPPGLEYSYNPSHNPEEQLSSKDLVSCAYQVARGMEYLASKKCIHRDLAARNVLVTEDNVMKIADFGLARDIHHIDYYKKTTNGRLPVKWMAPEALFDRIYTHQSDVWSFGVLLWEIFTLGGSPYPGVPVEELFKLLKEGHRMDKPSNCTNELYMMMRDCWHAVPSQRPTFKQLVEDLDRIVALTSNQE
T12 sequence (P04049 whole entry): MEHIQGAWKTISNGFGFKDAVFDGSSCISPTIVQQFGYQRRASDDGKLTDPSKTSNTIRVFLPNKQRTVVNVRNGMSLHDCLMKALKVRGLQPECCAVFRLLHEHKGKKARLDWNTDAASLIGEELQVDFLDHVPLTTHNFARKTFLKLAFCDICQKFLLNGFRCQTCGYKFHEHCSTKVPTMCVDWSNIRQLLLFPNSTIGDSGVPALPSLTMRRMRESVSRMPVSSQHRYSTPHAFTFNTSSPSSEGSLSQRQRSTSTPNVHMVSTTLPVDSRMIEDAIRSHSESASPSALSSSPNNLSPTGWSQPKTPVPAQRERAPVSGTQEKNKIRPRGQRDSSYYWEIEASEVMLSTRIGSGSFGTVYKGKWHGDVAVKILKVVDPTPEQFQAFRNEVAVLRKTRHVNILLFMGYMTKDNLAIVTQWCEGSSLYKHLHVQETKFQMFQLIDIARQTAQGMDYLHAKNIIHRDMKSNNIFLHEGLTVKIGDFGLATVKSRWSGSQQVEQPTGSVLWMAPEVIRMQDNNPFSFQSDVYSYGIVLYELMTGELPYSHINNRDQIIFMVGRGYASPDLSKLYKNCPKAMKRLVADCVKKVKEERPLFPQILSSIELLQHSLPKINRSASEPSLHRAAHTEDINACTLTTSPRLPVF
T13 sequence (P15056 whole entry): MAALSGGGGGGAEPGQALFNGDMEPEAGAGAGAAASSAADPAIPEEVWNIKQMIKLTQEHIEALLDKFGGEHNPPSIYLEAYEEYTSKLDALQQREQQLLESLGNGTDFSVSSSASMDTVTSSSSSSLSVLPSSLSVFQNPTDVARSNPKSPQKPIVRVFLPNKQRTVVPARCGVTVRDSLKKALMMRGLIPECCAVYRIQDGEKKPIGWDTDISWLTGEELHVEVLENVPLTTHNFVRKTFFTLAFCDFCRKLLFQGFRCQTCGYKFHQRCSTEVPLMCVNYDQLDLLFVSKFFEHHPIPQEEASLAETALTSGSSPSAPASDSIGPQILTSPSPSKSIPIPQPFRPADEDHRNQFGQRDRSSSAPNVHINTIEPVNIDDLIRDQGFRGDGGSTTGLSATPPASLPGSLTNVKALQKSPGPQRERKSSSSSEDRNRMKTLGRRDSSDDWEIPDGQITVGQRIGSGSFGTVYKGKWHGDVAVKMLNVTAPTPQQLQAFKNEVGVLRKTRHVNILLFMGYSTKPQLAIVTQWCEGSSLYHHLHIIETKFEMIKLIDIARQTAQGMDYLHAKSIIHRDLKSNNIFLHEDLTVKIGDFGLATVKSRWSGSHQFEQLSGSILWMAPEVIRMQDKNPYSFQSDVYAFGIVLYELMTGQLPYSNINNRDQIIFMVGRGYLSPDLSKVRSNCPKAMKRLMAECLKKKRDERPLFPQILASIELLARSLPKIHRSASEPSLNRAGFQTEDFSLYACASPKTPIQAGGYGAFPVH
T3 sequence (P15056 with tags, fused parts or gaps V600E): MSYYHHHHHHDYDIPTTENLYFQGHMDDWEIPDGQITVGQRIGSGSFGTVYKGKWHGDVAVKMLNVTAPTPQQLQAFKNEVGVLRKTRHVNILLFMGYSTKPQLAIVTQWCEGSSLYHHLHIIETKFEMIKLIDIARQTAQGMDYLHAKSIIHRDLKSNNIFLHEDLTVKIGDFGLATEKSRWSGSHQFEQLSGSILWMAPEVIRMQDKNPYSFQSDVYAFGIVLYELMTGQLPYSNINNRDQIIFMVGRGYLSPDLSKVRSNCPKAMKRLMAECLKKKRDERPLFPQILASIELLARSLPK
T1 sequence (P07333 20-972): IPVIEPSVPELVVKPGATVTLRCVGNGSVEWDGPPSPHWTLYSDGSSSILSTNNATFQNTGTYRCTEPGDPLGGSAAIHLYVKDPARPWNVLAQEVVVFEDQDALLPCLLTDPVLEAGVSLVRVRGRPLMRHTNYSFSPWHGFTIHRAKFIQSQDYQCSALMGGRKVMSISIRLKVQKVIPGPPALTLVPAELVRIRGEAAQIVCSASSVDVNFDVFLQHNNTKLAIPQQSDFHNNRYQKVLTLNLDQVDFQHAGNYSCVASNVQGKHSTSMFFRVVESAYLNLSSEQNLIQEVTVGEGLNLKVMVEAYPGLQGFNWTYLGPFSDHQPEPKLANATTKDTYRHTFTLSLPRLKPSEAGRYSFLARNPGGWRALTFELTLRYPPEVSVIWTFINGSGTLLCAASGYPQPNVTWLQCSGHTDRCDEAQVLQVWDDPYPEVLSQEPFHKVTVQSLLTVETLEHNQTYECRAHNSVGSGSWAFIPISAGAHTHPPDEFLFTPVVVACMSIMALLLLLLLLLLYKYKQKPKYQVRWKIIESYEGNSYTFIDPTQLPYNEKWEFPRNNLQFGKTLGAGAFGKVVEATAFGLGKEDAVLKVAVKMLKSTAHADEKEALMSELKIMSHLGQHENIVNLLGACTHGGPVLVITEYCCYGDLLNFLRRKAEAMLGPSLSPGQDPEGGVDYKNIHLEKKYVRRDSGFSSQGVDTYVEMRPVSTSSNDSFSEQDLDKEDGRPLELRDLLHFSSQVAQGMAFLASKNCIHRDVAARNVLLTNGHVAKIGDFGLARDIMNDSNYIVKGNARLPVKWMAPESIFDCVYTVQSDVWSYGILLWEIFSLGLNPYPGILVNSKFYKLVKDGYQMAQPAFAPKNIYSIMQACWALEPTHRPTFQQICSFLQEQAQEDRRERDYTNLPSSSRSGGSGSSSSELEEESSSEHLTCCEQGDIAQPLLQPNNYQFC
T8 sequence (P45984 whole entry): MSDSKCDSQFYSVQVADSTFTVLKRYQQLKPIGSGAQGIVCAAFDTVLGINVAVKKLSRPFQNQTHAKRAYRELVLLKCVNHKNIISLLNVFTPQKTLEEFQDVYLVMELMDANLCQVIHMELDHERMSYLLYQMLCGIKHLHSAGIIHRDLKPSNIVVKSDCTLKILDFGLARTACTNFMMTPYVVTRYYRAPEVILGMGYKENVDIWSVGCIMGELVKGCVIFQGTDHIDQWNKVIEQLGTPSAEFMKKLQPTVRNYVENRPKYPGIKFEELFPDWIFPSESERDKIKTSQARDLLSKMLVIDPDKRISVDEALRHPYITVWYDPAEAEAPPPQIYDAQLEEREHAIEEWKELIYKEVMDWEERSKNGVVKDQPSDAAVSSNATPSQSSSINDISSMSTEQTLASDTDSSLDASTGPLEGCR

O=C(c1c(F)ccc(NS(=O)(=O)c2ccccc2)c1F)c1c[nH]c2ncc(-c3cccnc3)cc12 [Compound P-0685, N-[2,4-Difluoro-3-(5-pyridin-3-yl-1H-pyrrolo[2,3-b]pyridine-3-carbonyl)-phenyl]-benzenesulfonamide]
≤ 10 µM: Fms | Pyk2 | B-Raf V600E; [1] | Kit | FGFR1 | Flt1 | Fak | Jnk2 | Src | Jnk1 | Met | c-Raf-1 | B-Raf; [2] | MAP4K4

Clc1ccc(Nc2ccnc3[nH]ccc23)cc1Cl [Compound P-0842]
≤ 10 µM: B-Raf V600E; [1] | Zap70 | Met | c-Raf-1 | B-Raf; [2]

COc1cccc(Cc2c[nH]c3ncc(-c4ccc(N)cc4)cc23)c1 [Compound P-0140]
≤ 10 µM: B-Raf V600E | Stk6 | Kit | Abl | FGFR1 | Jnk2 | Jnk1 | Met | Kdr | Ret | B-Raf

S=C(NCc1ccncc1)NCc1c[nH]c2ncccc12 [Compound P-0781]
≤ 10 µM: Abl | Met

CS(=O)(=O)Nc1ccc(F)c(C(=O)c2c[nH]c3ncccc23)c1F [Compound P-0811]
≤ 10 µM: Fms | B-Raf V600E; [1] | FGFR1 | Fak | Met | c-Raf-1 | Ret | MAP4K4

O=C(Nc1ccc(Cc2c[nH]c3ncccc23)cc1)Nc1ccc(Cl)c(C(F)(F)F)c1 [Compound P-0369]
≤ 10 µM: Fms | Pyk2 | B-Raf V600E; [1] | Kit | FGFR1 | Met | Kdr | c-Raf-1 | Ret | B-Raf; [2] | MAP4K4

COc1cccc(Cc2c[nH]c3ncc(-c4cccnc4)cc23)c1F [Compound P-0269, 3-(2-Fluoro-3-methoxy-benzyl)-5-pyridin-3-yl-1H-pyrrolo[2,3-b]pyridine]
≤ 10 µM: Fms | Pyk2 | B-Raf V600E; [1] | Stk6 | Kit | FGFR1 | Flt1 | Fak | Jnk3 | Jnk2 | Src | Jnk1 | Met | Kdr | c-Raf-1 | Ret | B-Raf; [2] | MAP4K4

S=C(NCc1cccnc1)NCc1c[nH]c2ncccc12 [Compound P-1012]
≤ 10 µM: Abl | Met

NC(=O)c1cccc(-c2cnc3[nH]cc(C(=O)c4cc(O)ccc4F)c3c2)c1 [Compound P-0037, 3-[3-(2-Fluoro-5-hydroxy-benzoyl)-1H-pyrrolo[2,3-b]pyridin-5-yl]-benzamide]
≤ 10 µM: Fms | B-Raf V600E; [1] | Akt3 | Kit | Zap70 | FGFR1 | Flt1 | Fak | Jnk3 | Src | Jnk1 | Met | c-Raf-1 | Ret | B-Raf; [2]
